Each block holds one compound with its values, some of them ahead of it.
Assays:
[1] = target: Voltage-gated inwardly rectifying potassium channel KCNH2 (Homo sapiens, UniProt Q12809); format: functional; conditions: read-out: AC50
[2] = target: T1, 5-hydroxytryptamine receptor 1A (Homo sapiens, UniProt P08908)
T1 sequence (P08908 whole entry): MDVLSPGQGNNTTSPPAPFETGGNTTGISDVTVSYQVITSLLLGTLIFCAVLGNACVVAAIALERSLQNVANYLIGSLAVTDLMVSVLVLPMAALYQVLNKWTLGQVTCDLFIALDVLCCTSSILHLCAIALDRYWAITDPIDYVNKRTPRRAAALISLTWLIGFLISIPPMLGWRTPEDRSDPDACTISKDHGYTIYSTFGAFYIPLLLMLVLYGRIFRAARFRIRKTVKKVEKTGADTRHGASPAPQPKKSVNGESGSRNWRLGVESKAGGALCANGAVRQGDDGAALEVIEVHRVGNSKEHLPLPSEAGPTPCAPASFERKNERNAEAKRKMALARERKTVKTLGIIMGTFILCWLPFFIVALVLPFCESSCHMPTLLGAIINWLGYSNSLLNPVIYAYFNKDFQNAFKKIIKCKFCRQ

[3] = target: Gamma-aminobutyric acid receptor subunit alpha-1/alpha-2/beta-2/gamma-2 (Homo sapiens, UniProt P14867+P18507+P47869+P47870); format: protein-complex assay
[4] = target: T2, Muscarinic acetylcholine receptor M1 (Homo sapiens, UniProt P11229); format: functional, cell-based
T2 sequence (P11229 whole entry): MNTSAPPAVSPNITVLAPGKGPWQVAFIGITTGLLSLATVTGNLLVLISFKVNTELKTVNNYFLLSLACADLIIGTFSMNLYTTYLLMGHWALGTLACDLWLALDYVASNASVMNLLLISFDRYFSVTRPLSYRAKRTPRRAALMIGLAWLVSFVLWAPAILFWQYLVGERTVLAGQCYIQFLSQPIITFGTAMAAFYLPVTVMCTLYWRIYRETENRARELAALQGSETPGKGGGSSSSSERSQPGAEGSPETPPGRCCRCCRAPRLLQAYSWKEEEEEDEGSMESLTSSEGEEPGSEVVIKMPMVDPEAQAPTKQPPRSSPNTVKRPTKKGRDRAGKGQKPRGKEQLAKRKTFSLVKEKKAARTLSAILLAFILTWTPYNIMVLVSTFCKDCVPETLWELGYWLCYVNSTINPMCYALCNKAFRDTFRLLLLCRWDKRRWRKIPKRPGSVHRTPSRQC

[5] = target: T2, Muscarinic acetylcholine receptor M1; format: functional, cell-based; remark: listed apart in the source
[6] = target: Gamma-aminobutyric acid receptor subunit alpha-1 (Rattus norvegicus, UniProt P62813)
[7] = target: 3',5'-cyclic-AMP phosphodiesterase 4D (Homo sapiens, UniProt Q08499); format: functional
Further: assay procedure not described here.

3',5'-cyclic-AMP phosphodiesterase 4D, sequence (Q08499 whole entry): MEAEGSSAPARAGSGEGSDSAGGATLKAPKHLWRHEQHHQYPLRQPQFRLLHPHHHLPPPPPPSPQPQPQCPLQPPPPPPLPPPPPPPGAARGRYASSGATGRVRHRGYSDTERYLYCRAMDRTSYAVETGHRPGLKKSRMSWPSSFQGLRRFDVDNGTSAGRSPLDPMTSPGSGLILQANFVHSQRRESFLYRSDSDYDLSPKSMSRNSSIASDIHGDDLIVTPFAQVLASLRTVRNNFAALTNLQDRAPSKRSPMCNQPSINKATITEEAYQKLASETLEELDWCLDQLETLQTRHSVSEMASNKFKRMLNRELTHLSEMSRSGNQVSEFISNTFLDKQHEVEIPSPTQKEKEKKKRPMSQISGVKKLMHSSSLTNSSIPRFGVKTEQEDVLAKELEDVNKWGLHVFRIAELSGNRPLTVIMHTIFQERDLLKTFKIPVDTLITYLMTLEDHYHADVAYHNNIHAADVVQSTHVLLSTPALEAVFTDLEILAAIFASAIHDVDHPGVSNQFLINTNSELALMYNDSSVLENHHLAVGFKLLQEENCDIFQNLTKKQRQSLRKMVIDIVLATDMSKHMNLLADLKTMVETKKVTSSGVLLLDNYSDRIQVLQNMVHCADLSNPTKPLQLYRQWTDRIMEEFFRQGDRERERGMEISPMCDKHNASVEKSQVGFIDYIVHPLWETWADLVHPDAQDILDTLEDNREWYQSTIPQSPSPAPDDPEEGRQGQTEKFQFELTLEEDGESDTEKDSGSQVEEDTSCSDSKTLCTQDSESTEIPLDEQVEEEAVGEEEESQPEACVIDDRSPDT
Gamma-aminobutyric acid receptor subunit alpha-1/alpha-2/beta-2/gamma-2, sequence (P14867 whole entry): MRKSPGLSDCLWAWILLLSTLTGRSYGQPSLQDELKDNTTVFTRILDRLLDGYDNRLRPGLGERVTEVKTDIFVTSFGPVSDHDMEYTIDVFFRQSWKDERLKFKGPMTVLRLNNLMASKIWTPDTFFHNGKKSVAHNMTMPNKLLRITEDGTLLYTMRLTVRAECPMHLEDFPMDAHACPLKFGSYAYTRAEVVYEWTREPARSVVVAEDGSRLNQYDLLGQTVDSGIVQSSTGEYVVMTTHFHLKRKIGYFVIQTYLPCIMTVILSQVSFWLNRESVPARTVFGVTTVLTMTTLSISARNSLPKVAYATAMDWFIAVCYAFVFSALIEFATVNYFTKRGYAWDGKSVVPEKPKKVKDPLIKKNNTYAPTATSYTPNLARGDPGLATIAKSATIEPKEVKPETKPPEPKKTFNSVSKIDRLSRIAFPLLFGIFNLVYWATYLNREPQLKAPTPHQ
Gamma-aminobutyric acid receptor subunit alpha-1/alpha-2/beta-2/gamma-2, sequence (P47870 whole entry): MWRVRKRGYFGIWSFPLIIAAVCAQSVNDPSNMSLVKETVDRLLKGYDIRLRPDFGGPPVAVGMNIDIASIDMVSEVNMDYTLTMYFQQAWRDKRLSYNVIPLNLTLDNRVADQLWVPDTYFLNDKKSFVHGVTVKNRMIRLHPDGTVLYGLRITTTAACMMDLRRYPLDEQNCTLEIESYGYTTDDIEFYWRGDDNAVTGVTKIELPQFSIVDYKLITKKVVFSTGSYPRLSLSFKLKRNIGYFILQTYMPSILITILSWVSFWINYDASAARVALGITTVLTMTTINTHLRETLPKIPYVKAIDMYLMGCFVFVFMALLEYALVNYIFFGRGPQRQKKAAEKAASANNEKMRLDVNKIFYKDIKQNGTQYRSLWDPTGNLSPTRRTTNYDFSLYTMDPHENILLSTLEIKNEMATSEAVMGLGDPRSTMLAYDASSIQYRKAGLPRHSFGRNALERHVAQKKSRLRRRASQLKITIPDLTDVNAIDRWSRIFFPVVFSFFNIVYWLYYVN
Gamma-aminobutyric acid receptor subunit alpha-1/alpha-2/beta-2/gamma-2, sequence (P18507 whole entry): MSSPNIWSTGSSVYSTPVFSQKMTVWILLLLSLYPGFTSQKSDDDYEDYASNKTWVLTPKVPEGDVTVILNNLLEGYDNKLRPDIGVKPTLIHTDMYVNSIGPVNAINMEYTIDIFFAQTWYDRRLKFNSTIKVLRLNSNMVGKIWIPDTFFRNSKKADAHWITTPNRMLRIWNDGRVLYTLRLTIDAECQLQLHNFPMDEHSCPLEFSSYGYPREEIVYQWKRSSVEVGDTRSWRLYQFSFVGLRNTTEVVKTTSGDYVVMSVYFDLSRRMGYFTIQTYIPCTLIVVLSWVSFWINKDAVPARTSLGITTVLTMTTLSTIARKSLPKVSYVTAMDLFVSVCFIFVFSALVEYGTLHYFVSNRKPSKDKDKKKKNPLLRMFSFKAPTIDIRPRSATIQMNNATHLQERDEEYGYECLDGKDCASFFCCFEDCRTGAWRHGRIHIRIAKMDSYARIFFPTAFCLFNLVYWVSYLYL
Gamma-aminobutyric acid receptor subunit alpha-1/alpha-2/beta-2/gamma-2, sequence (P47869 whole entry): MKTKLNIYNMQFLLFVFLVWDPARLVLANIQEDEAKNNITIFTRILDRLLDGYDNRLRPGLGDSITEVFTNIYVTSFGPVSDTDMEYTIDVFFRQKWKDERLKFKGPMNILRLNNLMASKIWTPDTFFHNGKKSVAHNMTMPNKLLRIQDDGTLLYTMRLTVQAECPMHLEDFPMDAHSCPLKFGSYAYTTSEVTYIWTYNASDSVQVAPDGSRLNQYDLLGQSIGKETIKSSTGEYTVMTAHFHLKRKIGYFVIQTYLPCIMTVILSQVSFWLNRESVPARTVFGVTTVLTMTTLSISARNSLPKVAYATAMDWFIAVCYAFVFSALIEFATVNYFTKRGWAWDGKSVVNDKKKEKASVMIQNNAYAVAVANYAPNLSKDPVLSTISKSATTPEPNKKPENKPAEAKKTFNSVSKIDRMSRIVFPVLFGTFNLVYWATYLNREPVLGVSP
Voltage-gated inwardly rectifying potassium channel KCNH2, sequence (Q12809 whole entry): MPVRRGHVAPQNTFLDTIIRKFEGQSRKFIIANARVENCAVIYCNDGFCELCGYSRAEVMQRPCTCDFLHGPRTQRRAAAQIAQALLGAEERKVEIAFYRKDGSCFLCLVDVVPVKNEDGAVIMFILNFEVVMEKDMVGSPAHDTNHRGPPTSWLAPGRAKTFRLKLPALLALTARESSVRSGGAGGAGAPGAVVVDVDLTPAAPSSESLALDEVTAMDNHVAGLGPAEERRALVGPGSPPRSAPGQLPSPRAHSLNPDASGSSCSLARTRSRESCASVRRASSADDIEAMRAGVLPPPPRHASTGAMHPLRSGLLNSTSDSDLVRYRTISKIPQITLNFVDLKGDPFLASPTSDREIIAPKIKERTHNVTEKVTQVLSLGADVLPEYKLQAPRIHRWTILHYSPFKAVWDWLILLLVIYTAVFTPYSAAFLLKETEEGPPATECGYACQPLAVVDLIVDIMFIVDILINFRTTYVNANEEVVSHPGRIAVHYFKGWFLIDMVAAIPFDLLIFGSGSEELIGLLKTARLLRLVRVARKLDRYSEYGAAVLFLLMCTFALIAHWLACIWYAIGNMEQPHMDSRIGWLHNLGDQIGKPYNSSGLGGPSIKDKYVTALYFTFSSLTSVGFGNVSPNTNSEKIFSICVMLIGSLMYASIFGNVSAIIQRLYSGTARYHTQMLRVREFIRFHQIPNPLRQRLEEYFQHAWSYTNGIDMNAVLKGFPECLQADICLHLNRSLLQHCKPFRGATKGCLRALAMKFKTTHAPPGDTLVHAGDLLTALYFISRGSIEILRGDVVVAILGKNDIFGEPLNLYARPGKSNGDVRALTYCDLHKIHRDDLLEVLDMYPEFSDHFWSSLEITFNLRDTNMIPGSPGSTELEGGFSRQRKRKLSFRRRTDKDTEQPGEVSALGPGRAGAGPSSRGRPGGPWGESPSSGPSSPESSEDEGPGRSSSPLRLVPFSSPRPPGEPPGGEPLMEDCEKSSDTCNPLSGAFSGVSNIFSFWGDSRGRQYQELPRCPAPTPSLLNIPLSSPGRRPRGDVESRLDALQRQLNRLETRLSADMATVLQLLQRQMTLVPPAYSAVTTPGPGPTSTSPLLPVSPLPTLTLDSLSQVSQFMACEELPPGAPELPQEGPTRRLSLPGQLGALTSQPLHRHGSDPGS
Gamma-aminobutyric acid receptor subunit alpha-1, sequence (P62813 whole entry): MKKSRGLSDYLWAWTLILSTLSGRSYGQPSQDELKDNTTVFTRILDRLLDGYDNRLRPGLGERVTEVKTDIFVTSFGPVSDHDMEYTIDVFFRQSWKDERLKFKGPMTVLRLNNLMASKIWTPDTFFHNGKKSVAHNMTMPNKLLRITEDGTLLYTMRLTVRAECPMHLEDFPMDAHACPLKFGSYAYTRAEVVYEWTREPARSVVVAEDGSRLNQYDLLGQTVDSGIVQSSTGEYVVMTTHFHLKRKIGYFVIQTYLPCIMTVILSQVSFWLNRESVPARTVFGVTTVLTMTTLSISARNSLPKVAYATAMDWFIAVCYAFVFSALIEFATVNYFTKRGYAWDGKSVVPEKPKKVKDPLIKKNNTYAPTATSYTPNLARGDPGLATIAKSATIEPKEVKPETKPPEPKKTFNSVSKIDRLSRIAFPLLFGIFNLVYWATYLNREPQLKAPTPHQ

Compound: C[C@H]1C[C@H]2[C@@H]3CCC4=CC(=O)C=C[C@]4(C)[C@@]3(F)[C@@H](O)C[C@]2(C)[C@@]1(O)C(=O)CO [BETAMETHASONE]
AC50 [1]: > 30 µM
AC50 [2]: > 30 µM
AC50 [3]: > 30 µM

Compound: O=c1[nH]c(=O)n([C@H]2C[C@H](O)[C@@H](CO)O2)cc1/C=C/Br [BRIVUDINE]
AC50 [4]: > 30 µM
AC50 [1]: > 30 µM
AC50 [2]: > 30 µM
AC50 [3]: > 30 µM
AC50 [5]: > 30 µM

Compound: Nc1ccc(C(=O)NCC(=O)O)cc1 [AMINOHIPPURIC ACID]
AC50 [4]: > 30 µM
AC50 [1]: > 30 µM
AC50 [2]: > 30 µM
AC50 [3]: > 30 µM
AC50 [5]: > 30 µM

Compound: O=C(OOC(=O)c1ccccc1)c1ccccc1 [BENZOYL PEROXIDE]
AC50 [4]: > 30 µM
AC50 [6]: > 30 µM
AC50 [1]: > 30 µM
AC50 [2]: > 30 µM
AC50 [5]: > 30 µM

Compound: Nc1ccn(C[C@@H](CO)OCP(=O)(O)O)c(=O)n1 [CIDOFOVIR]
AC50 [4]: > 30 µM
AC50 [1]: > 30 µM
AC50 [2]: > 30 µM
AC50 [3]: > 30 µM
AC50 [5]: > 30 µM

Compound: CNC(=O)c1cnn(-c2nc(N)c3ncn([C@@H]4O[C@H](CO)[C@@H](O)[C@H]4O)c3n2)c1 [REGADENOSON ANHYDROUS]
AC50 [4]: > 30 µM
AC50 [6]: > 30 µM
AC50 [2]: > 30 µM
AC50 [5]: > 30 µM

AC50 [7]: > 30 µM
Compound: CC(C)(Oc1ccc(Cl)cc1)C(=O)OCCOC(=O)c1cccnc1 [ETOFIBRATE]
AC50 [1]: > 30 µM

Compound: Cc1cccc(C)c1NC(=O)CN(CC(=O)O)CC(=O)O [LIDOFENIN]
AC50 [4]: > 30 µM
AC50 [6]: > 30 µM
AC50 [1]: > 30 µM
AC50 [2]: > 30 µM
AC50 [5]: > 30 µM

Compound: CC(=O)OCC(=O)[C@@]1(O)CC[C@H]2[C@@H]3C[C@H](C)C4=CC(=O)C=C[C@]4(C)[C@H]3[C@@H](O)C[C@@]21C [METHYLPREDNISOLONE ACETATE]
AC50 [4]: > 30 µM
AC50 [6]: > 30 µM
AC50 [2]: > 30 µM
AC50 [5]: > 30 µM

AC50 [7]: > 30 µM
Compound: CN(C)[C@@H]1C(O)=C(C(=O)NCN2CCCC2)C(=O)[C@@]2(O)C(O)=C3C(=O)c4c(O)cccc4[C@@](C)(O)[C@H]3C[C@@H]12 [ROLITETRACYCLINE]
AC50 [1]: > 30 µM

AC50 [7]: > 10 µM
Compound: CCC(=O)c1ccc2c(c1)N(CC(C)N(C)C)c1ccccc1S2 (stereo unspecified) [PROPIOMAZINE]
AC50 [1]: 0.685 µM

Compound: CSCC[C@H](N)C(=O)O [METHIONINE]
AC50 [6]: > 30 µM
AC50 [2]: > 30 µM

AC50 [7]: > 10 µM
Compound: COc1ccc(-c2cc(=S)ss2)cc1 [ANETHOLTRITHION]
AC50 [1]: 23.3 µM

Compound: CN1CCc2c(c3ccccc3n2Cc2ccccc2)C1 [MEBHYDROLIN]
AC50 [4]: 1.96 µM
AC50 [6]: 25.4 µM
AC50 [1]: 1 µM
AC50 [2]: 1.04 µM
AC50 [5]: > 30 µM

Compound: CC(=O)Nc1ccc(/C=N/NC(N)=S)cc1 [AMITHIOZONE]
AC50 [6]: > 30 µM
AC50 [2]: > 30 µM

AC50 [7]: > 30 µM
Compound: CN(C)CCC(O)(c1ccccc1)c1ccccc1Cl (stereo unspecified) [CHLOPHEDIANOL]
AC50 [1]: 3.4 µM

Compound: C#C[C@]1(OC(C)=O)CC[C@H]2[C@@H]3CCC4=CC(=O)CC[C@@H]4[C@H]3CC[C@@]21C [NORETHINDRONE ACETATE]
AC50 [1]: > 30 µM
AC50 [2]: > 30 µM
AC50 [3]: > 10 µM

AC50 [7]: > 30 µM
Compound: C[C@]12C=CC(=O)C=C1CC[C@@H]1[C@@H]2[C@@H](O)C[C@@]2(C)[C@H]1CC[C@]2(O)C(=O)CO [PREDNISOLONE]

Compound: CC(CN(C)C)CN1c2ccccc2CCc2ccccc21 (stereo unspecified) [TRIMIPRAMINE]
AC50 [1]: 8.9 µM
AC50 [2]: 20.1 µM
AC50 [3]: > 30 µM

Compound: Cc1c(C(C)C)c(=O)n(-c2ccccc2)n1C [PROPYPHENAZONE]
AC50 [4]: > 30 µM
AC50 [1]: > 30 µM
AC50 [2]: > 30 µM
AC50 [3]: > 30 µM
AC50 [5]: > 30 µM

Compound: CCOC1O[C@H]([C@@H](COCc2ccccc2)OCc2ccccc2)[C@H](OCc2ccccc2)[C@H]1O (stereo partly specified) [TRIBENOSIDE]
AC50 [4]: 8.21 µM
AC50 [6]: > 30 µM
AC50 [1]: > 30 µM
AC50 [2]: > 30 µM
AC50 [5]: > 30 µM

Compound: CC(C)NC[C@H](O)COc1ccc(CCOCC2CC2)cc1 [LEVOBETAXOLOL]
AC50 [4]: > 30 µM
AC50 [6]: > 30 µM
AC50 [1]: > 30 µM
AC50 [2]: > 30 µM
AC50 [5]: > 30 µM

Compound: N[C@@H](Cc1ccc(O)cc1)C(=O)O [TYROSINE]
AC50 [4]: > 30 µM
AC50 [6]: > 30 µM
AC50 [2]: > 30 µM
AC50 [5]: > 30 µM

AC50 [7]: > 30 µM
Compound: C[C@]12C=CC(=O)C=C1C(Cl)=C[C@@H]1[C@@H]2[C@@H](O)C[C@@]2(C)[C@H]1CC[C@]2(O)C(=O)CO [CLOPREDNOL]
AC50 [1]: > 30 µM

Compound: CC(C)=CCC/C(C)=C/CC/C(C)=C/CC/C(C)=C/CC1=C(C)C(=O)c2ccccc2C1=O [MENATETRENONE]
AC50 [4]: > 30 µM
AC50 [6]: > 30 µM
AC50 [1]: > 30 µM
AC50 [2]: 22.5 µM
AC50 [5]: > 30 µM

Compound: N=C(N)NC(=O)c1nc(Cl)c(N)nc1N [AMILORIDE]
AC50 [7]: > 30 µM
AC50 [6]: > 30 µM
AC50 [2]: 11.1 µM

Compound: CC1=C(/C=C/C(C)=C/C=C/C(C)=C\C(=O)O)C(C)(C)CCC1 [ISOTRETINOIN]
AC50 [6]: > 30 µM
AC50 [2]: > 30 µM

AC50 [7]: > 30 µM
Compound: C[C@]12CCC(=O)C=C1[C@@H]1C[C@@H]1[C@H]1[C@@H]3[C@@H]4C[C@@H]4[C@@]4(CCC(=O)O4)[C@@]3(C)CC[C@@H]12 [DROSPIRENONE]
AC50 [1]: > 30 µM

Compound: CC1(C)CCC(C)(C)c2cc(NC(=O)c3ccc(C(=O)O)cc3)ccc21 [TAMIBAROTENE]
AC50 [4]: > 10 µM
AC50 [6]: > 30 µM
AC50 [2]: > 30 µM
AC50 [5]: > 30 µM

Compound: CC1=C(/C=C/C(C)=C\C=C\C(C)=C\C(=O)O)C(C)(C)CCC1 [ALITRETINOIN]
AC50 [6]: > 30 µM
AC50 [2]: > 30 µM

Compound: CC(C)Cc1ccc(C(C)C(=O)OCc2ccccn2)cc1 (stereo unspecified) [IBUPROFEN PICONOL]
AC50 [4]: > 10 µM
AC50 [6]: > 30 µM
AC50 [1]: > 30 µM
AC50 [2]: > 30 µM
AC50 [5]: > 30 µM

Compound: CC(C)N1CCN(c2ccc(OCC3COC(Cn4cncn4)(c4ccc(Cl)cc4Cl)O3)cc2)CC1 (stereo unspecified) [TERCONAZOLE]
AC50 [1]: 6.9 µM
AC50 [2]: > 30 µM
AC50 [3]: > 30 µM

Compound: Cc1ccc(Cl)c(Nc2ccccc2C(=O)O)c1Cl [MECLOFENAMIC ACID]
AC50 [1]: > 30 µM
AC50 [2]: > 30 µM
AC50 [3]: > 3 µM

Compound: N[C@@H](Cc1ccc(N(CCCl)CCCl)cc1)C(=O)O
AC50 [1]: 4.8 µM
AC50 [2]: > 30 µM
AC50 [3]: > 30 µM

Compound: NS(=O)(=O)c1cc2c(cc1Cl)NC(C(Cl)Cl)NS2(=O)=O (stereo unspecified) [TRICHLORMETHIAZIDE]
AC50 [2]: > 30 µM
AC50 [3]: > 30 µM

Compound: CC(=O)OCC(=O)[C@@]1(OC(C)=O)[C@@H](C)C[C@H]2[C@@H]3C[C@H](F)C4=CC(=O)C=C[C@]4(C)[C@@]3(F)[C@@H](O)C[C@@]21C [DIFLORASONE DIACETATE]
AC50 [1]: > 30 µM
AC50 [2]: > 30 µM
AC50 [3]: > 30 µM

AC50 [7]: > 30 µM
Compound: CC1(C)O[C@@H]2C[C@H]3[C@@H]4CCC5=CC(=O)C=C[C@]5(C)[C@@]4(F)[C@@H](O)C[C@]3(C)[C@]2(C(=O)CO)O1 [TRIAMCINOLONE ACETONIDE]
AC50 [1]: > 30 µM

AC50 [7]: > 30 µM
Compound: C[C@]12CCC(=O)C=C1C=C[C@@H]1[C@@H]2CC[C@@]2(C)[C@H]1CC[C@@]21CCC(=O)O1 [CANRENONE]
AC50 [1]: > 30 µM

Compound: O=C1Nc2ccccc2C1(c1ccc(O)cc1)c1ccc(O)cc1 [OXYPHENISATINE]
AC50 [4]: > 30 µM
AC50 [6]: > 30 µM
AC50 [1]: 10.1 µM
AC50 [2]: > 30 µM
AC50 [5]: > 30 µM

Compound: Cn1c(CCCC(=O)O)nc2cc(N(CCCl)CCCl)ccc21 [BENDAMUSTINE]
AC50 [4]: > 30 µM
AC50 [6]: > 30 µM
AC50 [2]: > 30 µM
AC50 [5]: > 30 µM

Compound: Oc1cc(Cl)ccc1Oc1ccc(Cl)cc1Cl [TRICLOSAN]
AC50 [7]: > 30 µM
AC50 [1]: > 30 µM

Compound: COc1cccc2c1C(=O)c1c(O)c3c(c(O)c1C2=O)C[C@@](O)(C(=O)CO)C[C@@H]3O[C@H]1C[C@H](N)[C@@H](O)[C@H](C)O1 [EPIRUBICIN]
AC50 [6]: > 30 µM
AC50 [2]: > 30 µM

Compound: COc1cccc2c1C(=O)c1c(O)c3c(c(O)c1C2=O)C[C@@](O)(C(=O)CO)C[C@@H]3O[C@H]1C[C@H](N)[C@H](O)[C@H](C)O1 [DOXORUBICIN]
AC50 [7]: > 30 µM
AC50 [6]: > 30 µM
AC50 [1]: 5.63 µM
AC50 [2]: > 30 µM

Compound: CC(=O)OC1CN2CCC1CC2 (stereo unspecified) [ACECLIDINE]
AC50 [6]: > 30 µM
AC50 [2]: > 30 µM

Compound: C[C@@H]1CN(c2c(F)c(N)c3c(=O)c(C(=O)O)cn(C4CC4)c3c2F)C[C@H](C)N1 [SPARFLOXACIN]
AC50 [1]: 6.8 µM
AC50 [2]: > 30 µM
AC50 [3]: > 30 µM

From ChEMBL document CHEMBL5291721, “A preclinical secondary pharmacology resource illuminates target-adverse drug reaction associations of marketed drugs” (Nat Commun, 2023)
